The source of these data is ChEMBL document CHEMBL1153334, “New cyclic peptide proteasome inhibitors” (Bioorg Med Chem Lett, 2009).

Data set [1] in a line: Metabolic stability in human plasma assessed as half life after 360 mins. The data set is classed as ADME, cell-free.
Data set [2] in a line: cells.
Description: Inhibition of caspase-like activity of 20S proteasome beta 1 subunit by cell based assay
A short description of data set [3]: cells. The source holds these as a separate data set.
Description: Inhibition of trypsin-like activity of 20S proteasome beta 2 subunit by cell based assay

In the case of `COC(=O)/C=C/[C@H](CC(C)C)NC(=O)CC[C@@H]1NC(=O)[C@H](CC(C)C)NC(=O)[C@H](CC(C)C)C(=O)NC(=O)[C@H](C(C)C)NC1=O`, the half-life in data set [1] is over 6 h. In data set [2], this compound returned a 50% inhibitory concentration (IC50) of 273 nM.
Turning to `COC(=O)/C=C/[C@H](CC(C)C)NC(=O)CC[C@H](NC(=O)[C@H](CC(C)C)NC(=O)[C@H](CC(C)C)C(=O)NC(=O)CN)C(N)=O`, the half-life in data set [1] was 0.808 h.
Same read-out and setting: next, `COC(=O)/C=C/[C@H](CC(C)C)NC(=O)CC[C@H](NC(=O)[C@H](CC(C)C)NC(=O)[C@H](CC(C)C)C(=O)NC(=O)[C@@H](N)CO)C(N)=O`: 1.43 h.
Turning to `COC(=O)/C=C/[C@H](CC(C)C)NC(=O)CC[C@@H]1NC(=O)[C@H](CC(C)C)NC(=O)[C@H](CC(C)C)C(=O)NC(=O)[C@H](C)NC1=O`, the half-life in data set [1] is over 6 h. Moreover, in data set [2], the IC50 was 123 nM.
Take `COC(=O)/C=C/[C@H](CC(C)C)NC(=O)CC[C@H](NC(=O)[C@H](CC(C)C)NC(=O)[C@H](CC(C)C)C(=O)NC(=O)[C@@H](N)C(C)C)C(N)=O`: the half-life in data set [1] was determined as 1.96 h.
In the case of `COC(=O)/C=C/[C@H](CC(C)C)NC(=O)CC[C@@H]1NC(=O)[C@H](CC(C)C)NC(=O)[C@H](CC(C)C)C(=O)NC(=O)CNC1=O`, the IC50 in data set [3] was found to be 5830 nM; in data set [2], 221 nM. The half-life in data set [1] was over 6 h.
Turning to `COC(=O)/C=C/[C@H](CC(C)C)NC(=O)CC[C@@H]1NC(=O)[C@H](CC(C)C)NC(=O)[C@H](CC(C)C)C(=O)NC(=O)[C@H](CO)NC1=O`, the IC50 came to 6940 nM in data set [3] and 91 nM in data set [2]. Also, in data set [1], the half-life is over 6 h.
Consider `COC(=O)/C=C/[C@H](CC(C)C)NC(=O)CC[C@H](NC(=O)[C@H](CC(C)C)NC(=O)[C@H](CC(C)C)C(=O)NC(=O)[C@H](C)N)C(N)=O`, for which the half-life in data set [1] worked out at 1.22 h.
